Laboratory results from patent publication US20250281649A1, “PROBE DIRECTED TO ENZYME ALDH1A3 AND USE THEREOF IN THE DIAGNOSIS OF GLIOBLASTOMA” (Universita' Degli Studi Del Piemonte Orientale "A. Avogadro", priority 2021, published 2025).
“Also recorded” adds a separate entry of the source.

Tests used:
ALDH1A3 = target: T1, ALDH1A3 (Homo sapiens, UniProt P47895); experiment: Fluorescence of probes in buffer and in complex with the isoenzymes (Tecan SPARK); assay type: binding; conditions: in complex with the three isoenzymes, in particular ALDH1A3
T1 construct: His-tag; made in house; host or cells: bacterial cells
T1 sequence (P47895 1-512): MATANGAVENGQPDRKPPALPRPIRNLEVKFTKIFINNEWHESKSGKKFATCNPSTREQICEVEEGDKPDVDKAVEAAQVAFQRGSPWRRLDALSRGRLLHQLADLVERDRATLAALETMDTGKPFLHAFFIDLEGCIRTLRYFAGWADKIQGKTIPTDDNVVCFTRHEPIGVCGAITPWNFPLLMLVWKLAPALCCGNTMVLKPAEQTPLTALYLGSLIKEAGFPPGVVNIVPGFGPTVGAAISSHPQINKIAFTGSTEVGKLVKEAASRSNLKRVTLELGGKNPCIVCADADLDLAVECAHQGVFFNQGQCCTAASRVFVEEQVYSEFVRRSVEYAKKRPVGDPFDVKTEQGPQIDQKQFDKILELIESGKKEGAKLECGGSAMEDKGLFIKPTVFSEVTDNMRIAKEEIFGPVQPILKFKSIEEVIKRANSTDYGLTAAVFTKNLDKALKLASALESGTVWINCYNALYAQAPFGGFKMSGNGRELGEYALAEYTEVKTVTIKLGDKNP
Procedure: All five compounds were dissolved in DMSO (100%) to obtain two different initial stocks, one at 10 mM and a second one at 1 mM. […] The assay can be executed at a maximum DMSO percentage of 15%. The maximum probe concentration tested was 500 uM—15% DMSO. All the compounds were tested using a Tecan—SPARK, to analyze their absorbance, excitation and emission wavelength. Based on the literature, the absorbance of the curcumin by itself is comprised between 420 and 425 nm. At first, we measured the absorbance, and from those values, we performed a 3D analysis to highlights the correct Ex and Em wavelengths. To avoid any possible background in the fluorescence signal we performed a screening of every possible buffer used in our assays.

[1] = tested on: U87MG glioblastoma (ALDH1A3+); experiment: Confocal fluorescence of probes in cell lines; assay type: cell-based, human; conditions: 10 μM to 100 nM, after 2 h
Procedure: All 3 enzymes belonging to the subfamily 1A of aldehyde dehydrogenases were expressed recombinantly in bacterial cells and purified to homogeneity. The pure enzymes were then used to study the interaction with the molecules according to the invention, using various in vitro biochemical assays. In particular, the affinity for the isoenzymes of the selected molecules was measured through the use of a TECAN SPARK and a TECAN SUNRISE. Fluorescence assays were performed in the presence of different protein concentrations and the activity assays were conducted by measuring NAD^+ consumption. According to their specific activity, all molecules were characterized by values of KD, KM, Ki and IC50, showing a net selectivity in specifically binding the ALDH1A3 enzyme. […]
Human U87MG glioblastoma were used as ALDH1A3+ cell lines, HEK293T as ALDH1A2+ cell line, human foetal astrocytes (hASTRO) as ALDH1A1+ cell line and 4T1 mammary carcinoma as triple negative ALDHIA subfamily (checked with Western Blot analysis and RT-PCR). […] Moreover, we incubated the two probes with cells and analyzed with FACS and we observed a significant positivity in U87MG cells, too.

GL261 glioblastoma cells = experiment: In vivo labelling of GL261 glioma in mouse brain after i.p. injection; conditions: GL261 tumor-bearing mouse brain, 6 hours after injection, 6 days after implantation
Source text: We used in vitro and in vivo cells from a mouse high grade glioma cell line, GL261, Briefly, twenty-four 2- to 3-month-old female C57BIC mice were stereotactically implanted under deep general anesthesia (isoflurane supplemented with nitrous oxide) with 1×10^5 GL261 glioblastoma cells. The cells were stereotactically inoculated through a burr hole by a Hamilton syringe into the left striatum (coordinates: 1 mm anteroposterior and 1 mm lateral from bregma, at a depth of 3 mm). All experimental procedures were conducted in accordance with the European Communities Council Directive of 24 Nov. 1986 (86/609 EEC), Recommendation 18/06/2007, Dir. 2010/63/UE, and the Italian law for care and use of experimental animals (DL116/92) and were approved by the Italian Ministry of Health (prot. E669C.15) and the Bioethical Committee of the University of Turin. All animals were housed under a 12-hour light-dark cycle in an environmentally controlled room. All experiments were designed to minimize the numbers of animals used and their discomfort. In each experiment, animals with tumors were allocated to two groups and i.p. injected with probe 14 or probe 13. All drugs were administered intraperitoneally, and treatments were started days 6 after tumor implantation. […] Quantitative and phenotypic evaluations were made on images acquired with a Leica TCS SP5 confocal microscope.

| increase of fluorescence in complex with the isoenzymes (ALDH1A3) | SMILES | fluorescence signal in cells [1] | probe fluorescence / penetration in tumor cells in vivo (GL261 glioblastoma cells) |
| --- | --- | --- | --- |
| significant positive increment | CCOC(=O)Cn1cc(COc2ccc(/C=C/C(O)=C/C(=O)/C=C/c3ccc(O)c(OC)c3)cc2OC)nn1 [Compound 14] | selectivity | does not penetrate to any appreciable level |
| significant positive increment | COc1cc(/C=C/C(=O)/C=C(O)/C=C/c2ccc(OCc3cn(CCOc4ccc(C=O)cc4)nn3)c(OC)c2)ccc1O [Compound 13] | selectivity; also recorded: selectively illuminate cells expressing only ALDH1A3 | fluoresce in green |
